Patent US20260078108A1, “SOLID FORMS OF A ROCK INHIBITOR” (REDX PHARMA PLC, priority 2022, published 2026)
Converted amounts (≈) assume the structure as drawn. Where a name gives a salt, the structure may show the parent alone.

Experiments:
Format in all cases: physicochemical
[1] = Solubility testing in water, SGF, FaSSIF, FeSSIF at 37° C.; details: for Solubility / Solubility (mg/mL): 37° C.; for Solubility in SGF (in words): comparison with HCl Salt Form 1
Protocol: About 15 mg of sample was weighed into each sample vial and then 3.0 mL of water, simulated gastric fluid (SGF), Fasted State Simulated Intestinal Fluid (FaSSIF) or Fed State Simulated Intestinal Fluid (FeSSIF) media was added. Samples were prepared in triplicate for each media. The suspensions were kept shaking at 37° C. for up to 24 h. At 0.5, 2 and 24 h, suspensions were filtered and the filtrate was analyzed by HPLC.

[2] = 7-day stability testing of solid forms (HPLC purity, XRPD)
Protocol: About 10 mg of freebase Form I, HCl salt Form II, Succinate Form I and received HCl salt Form I were placed at 60° C./capped and 40° C./75% RH (open), respectively. Samples were prepared in duplicate for each condition. At day 0 and day 7, the samples were analyzed by HPLC and XRPD to check the purity and crystal form, respectively.

[3] = Longer term stability of HCl salt form II (HPLC, XRPD; 1 and 3 months)
Protocol: Samples were prepared in duplicate for each condition. At day 0 and at 1 month, and 3 months, the samples were analyzed by HPLC and XRPD to check the purity and crystal form, respectively.

[4] = FaSSIF (pH of media 6.5), 0.5 h
[5] = FeSSIF (pH of media 5.0), 0.5 h
[6] = pH of sample in FaSSIF (pH of media 6.5), 0.5 h
[7] = pH of sample in FaSSIF (pH of media 6.5), 2 h
[8] = pH of sample in FaSSIF (pH of media 6.5), 24 h
[9] = pH of sample in FeSSIF (pH of media 5.0), 0.5 h
[10] = pH of sample in FeSSIF (pH of media 5.0), 2 h
[11] = pH of sample in FeSSIF (pH of media 5.0), 24 h
[12] = pH of sample in SGF (pH of media 1.2), 0.5 h
[13] = pH of sample in SGF (pH of media 1.2), 2 h
[14] = pH of sample in SGF (pH of media 1.2), 24 h
[15] = pH of sample in Water (pH of media 7.9), 0.5 h
[16] = pH of sample in Water (pH of media 7.9), 2 h
[17] = pH of sample in Water (pH of media 7.9), 24 h
[18] = Day 7, 40° C./75% RH (open), HPLC
[19] = 25° C.±2° C., 60% RH±5% RH, T1 month
[20] = 25° C.±2° C., 60% RH±5% RH, T3 month
[21] = 40° C.±2° C., 74% RH±5% RH, T1 month
[22] = 40° C.±2° C., 74% RH±5% RH, T3 month

For NCc1ccc(C(=O)Nc2ccncc2F)cc1-c1cccc(C(=O)Nc2ccc(SC[C@H]3CCOC3=O)cc2)c1 [Freebase Form I], the “Solubility” value [1, 4] was 14 µg/mL (≈ 24.5 µM), the “Solubility” value ([1]; FaSSIF (pH of media 6.5), 2 h) was 6 µg/mL (≈ 10.5 µM) and the “Solubility” value ([1]; FaSSIF (pH of media 6.5), 24 h) was 1 µg/mL (≈ 1.75 µM). The “Solubility” value [1, 5] was 183 µg/mL (≈ 321 µM), the “Solubility” value ([1]; FeSSIF (pH of media 5.0), 2 h) was 126 µg/mL (≈ 221 µM) and the “Solubility” value ([1]; FeSSIF (pH of media 5.0), 24 h) was 59 µg/mL (≈ 103 µM). For the same compound, the “Solubility” value ([1]; SGF (pH of media 1.2), 0.5 h) was roughly 5000 µg/mL (≈ 8760 µM), the “Solubility” value ([1]; SGF (pH of media 1.2), 2 h) was roughly 5000 µg/mL (≈ 8760 µM) and the “Solubility” value ([1]; SGF (pH of media 1.2), 24 h) was roughly 5000 µg/mL (≈ 8760 µM). For the same compound, the “Solubility (mg/mL)” value ([1]; Water (pH of media 7.9), 0.5 h) was “<LOD”, the “Solubility (mg/mL)” value ([1]; Water (pH of media 7.9), 2 h) was “<LOD” and the “Solubility (mg/mL)” value ([1]; Water (pH of media 7.9), 24 h) was “<LOD”. For the same compound, the pH [1, 6] was 6.4, the pH [1, 7] was 6.4 and the pH [1, 8] was 6.5. For the same compound, the pH [1, 9] was 5.0, the pH [1, 10] was 5.0 and the pH [1, 11] was 5.0. It also gave a pH [1, 12] of 1.2, a pH [1, 13] of 1.4 and a pH [1, 14] of 1.4. It also gave a pH [1, 15] of 7.9, a pH [1, 16] of 7.6 and a pH [1, 17] of 8.7. The “Purity (area %)” value ([2]; Day 0, HPLC) was 96.89 area %, the “Decrease in purity versus Day 0” value ([2]; Day 7, 40° C./75% RH (open)) was 3.0 area % and the “XRPD (crystal form)” value ([2]; Day 7, 40° C./75% RH (open)) was “No change”. For the same compound, the “Purity (area %)” value [2, 18] was 93.87 area %, the “Decrease in purity versus Day 0” value ([2]; Day 7, 60° C./capped) was 1.9 area % and the “XRPD (crystal form)” value ([2]; Day 7, 60° C./capped) was “No change”. The “Purity (area %)” value ([2]; Day 7, 60° C./capped, HPLC) was 95.01 area %.
In the case of NCc1ccc(C(=O)Nc2ccncc2F)cc1-c1cccc(C(=O)Nc2ccc(SC[C@H]3CCOC3=O)cc2)c1 [HCl salt Form II], the “Longer term stability (in words)” value ([3]; 25° C./60% RH and accelerated 40° C./75% RH) is reported as “stable for up to 3 months even under accelerated conditions”, the “Assay by HPLC (water and solvent free)(area)” value ([3]; 25° C.±2° C., 60% RH±5% RH, T0) is reported as 101.6% and the “Polymorphism by XRPD” value ([3]; 25° C.±2° C., 60% RH±5% RH, T0) is reported as “Form II”. The “Total impurities by HPLC” value ([3]; 25° C.±2° C., 60% RH±5% RH, T0) was “impurities: 1.0%”, the “Water Content” value ([3]; 25° C.±2° C., 60% RH±5% RH, T0) was 1.8% and the “Assay by HPLC (water and solvent free)(area)” value [3, 19] was 101.4%. The “Polymorphism by XRPD” value [3, 19] was “Form II”, the “Total impurities by HPLC” value [3, 19] was “impurities: 1.1%” and the “Water Content” value [3, 19] was 1.6%. The “Assay by HPLC (water and solvent free)(area)” value [3, 20] was 101.2%, the “Polymorphism by XRPD” value [3, 20] was “Form II” and the “Total impurities by HPLC” value [3, 20] was “impurities: 1.0%”. The “Water Content” value [3, 20] was 1.4%, the “Assay by HPLC (water and solvent free)(area)” value ([3]; 40° C.±2° C., 74% RH±5% RH, T0) was 101.6% and the “Polymorphism by XRPD” value ([3]; 40° C.±2° C., 74% RH±5% RH, T0) was “Form II”. For the same compound, the “Total impurities by HPLC” value ([3]; 40° C.±2° C., 74% RH±5% RH, T0) was “impurities: 1.0%”, the “Water Content” value ([3]; 40° C.±2° C., 74% RH±5% RH, T0) was 1.8% and the “Assay by HPLC (water and solvent free)(area)” value [3, 21] was 101.4%. The “Polymorphism by XRPD” value [3, 21] was “Form II”, the “Total impurities by HPLC” value [3, 21] was “impurities: 1.1%” and the “Water Content” value [3, 21] was 1.5%. For the same compound, the “Assay by HPLC (water and solvent free)(area)” value [3, 22] was 101.4%, the “Polymorphism by XRPD” value [3, 22] was “Form II” and the “Total impurities by HPLC” value [3, 22] was “impurities: 1.1%”. The “Water Content” value [3, 22] was 1.5%, the “Solubility” value [1, 4] was 19 µg/mL and the “Solubility” value ([1]; FaSSIF (pH of media 6.5), 2 h) was 23 µg/mL. The “Solubility” value ([1]; FaSSIF (pH of media 6.5), 24 h) was 6 µg/mL, the “Solubility” value [1, 5] was 64 µg/mL and the “Solubility” value ([1]; FeSSIF (pH of media 5.0), 2 h) was 69 µg/mL. The solubility at 24 h ([1]; Fed State Simulated Intestinal Fluid (FeSSIF), 37 °C, pH 5, fessif, thermodynamic from solid, FeSSIF (pH of media 5.0), 24 h) was 57 µg/mL, the “Solubility” value ([1]; SGF (pH of media 1.2), 0.5 h) was 2550 µg/mL and the “Solubility” value ([1]; SGF (pH of media 1.2), 2 h) was 2591 µg/mL. The “Solubility” value ([1]; SGF (pH of media 1.2), 24 h) was 3372 µg/mL, the “Solubility in SGF (in words)” value [1] was “more soluble in SGF than HCl Salt Form 1” and the “Solubility” value ([1]; Water (pH of media 7.9), 0.5 h) was 716 µg/mL. For the same compound, the “Solubility” value ([1]; Water (pH of media 7.9), 2 h) was 696 µg/mL, the “Solubility” value ([1]; Water (pH of media 7.9), 24 h) was 919 µg/mL and the pH [1, 6] was 6.4. The pH [1, 7] was 6.4, the pH [1, 8] was 6.4 and the pH [1, 9] was 4.9. The pH [1, 10] was 4.9, the pH [1, 11] was 4.9 and the pH [1, 12] was 1.2. For the same compound, the pH [1, 13] was 1.4, the pH [1, 14] was 1.4 and the pH [1, 15] was 4.9. The pH [1, 16] was 4.8, the pH [1, 17] was 6.0 and the “Purity (area %)” value ([2]; Day 0, HPLC, listed as HCI salt Form II) was 98.65 area %. For the same compound, the “XRPD (crystal form)” value ([2]; Day 7, 40° C./75% RH (open)) was “No change”, the “Purity (area %)” value ([2]; Day 7, 40° C./75% RH (open), HPLC, listed as HCI salt Form II) was 98.48 area % and the “Decrease in purity versus Day 0” value ([2]; Day 7, 40° C./75% RH (open), listed as HCI salt Form II) was 0.2 area %. The “XRPD (crystal form)” value ([2]; Day 7, 60° C./capped) was “No change”, the “Purity (area %)” value ([2]; Day 7, 60° C./capped, HPLC, listed as HCI salt Form II) was 98.45 area % and the “Decrease in purity versus Day 0” value ([2]; Day 7, 60° C./capped, listed as HCI salt Form II) was 0.2 area %.
In the case of NCc1ccc(C(=O)Nc2ccncc2F)cc1-c1cccc(C(=O)Nc2ccc(SC[C@H]3CCOC3=O)cc2)c1 [Succinate Form I], the “Solubility” value [1, 4] is reported as 5 µg/mL, the “Solubility” value ([1]; FaSSIF (pH of media 6.5), 2 h) is reported as 2 µg/mL and the “Solubility” value ([1]; FaSSIF (pH of media 6.5), 24 h) is reported as 1 µg/mL. For the same compound, the “Solubility” value [1, 5] was 188 µg/mL, the “Solubility” value ([1]; FeSSIF (pH of media 5.0), 2 h) was 173 µg/mL and the “Solubility” value ([1]; FeSSIF (pH of media 5.0), 24 h) was 46 µg/mL. The “Solubility” value ([1]; SGF (pH of media 1.2), 0.5 h) was 3837 µg/mL, the “Solubility” value ([1]; SGF (pH of media 1.2), 2 h) was 3826 µg/mL and the “Solubility” value ([1]; SGF (pH of media 1.2), 24 h) was 4005 µg/mL. The “Solubility in SGF (in words)” value [1] was “more soluble in SGF than HCl Salt Form 1”, the “Solubility” value ([1]; Water (pH of media 7.9), 2 h) was 328 µg/mL and the “Solubility” value ([1]; Water (pH of media 7.9), 24 h) was 546 µg/mL. For the same compound, the pH [1, 6] was 5.7, the pH [1, 7] was 5.7 and the pH [1, 8] was 5.6. The pH [1, 9] was 4.8, the pH [1, 10] was 4.8 and the pH [1, 11] was 4.8. The pH [1, 12] was 1.3, the pH [1, 13] was 1.4 and the pH [1, 14] was 1.3. The pH [1, 15] was 4.3, the pH [1, 16] was 4.2 and the pH [1, 17] was 4.1. The solubility at 0.5 h ([1]; water, 37 °C, pH 7.9, water, thermodynamic from solid, Water (pH of media 7.9), 0.5 h) was 363 µg/mL, the “Purity (area %)” value ([2]; Day 0, HPLC) was 97.46 area % and the “Decrease in purity versus Day 0” value ([2]; Day 7, 40° C./75% RH (open)) was 0.2 area %. The “XRPD (crystal form)” value ([2]; Day 7, 40° C./75% RH (open)) was “No change”, the “Purity (area %)” value [2, 18] was 97.29 area % and the “Decrease in purity versus Day 0” value ([2]; Day 7, 60° C./capped) was 0.5 area %. The “XRPD (crystal form)” value ([2]; Day 7, 60° C./capped) was “No change” and the “Purity (area %)” value ([2]; Day 7, 60° C./capped, HPLC) was 96.98 area %.
